The record followed here is a melting point compilation (Tetko et al.; mined from patent text by program, amines drawn as free bases though some values may be those of a salt).

Each structure is given as a SMILES string.

On to `CC(C)(C)c1ccc(OCC(O)CN2CCCC3(CSC4=C(O3)c3ccccc3C(=O)C4=O)C2)cc1` (stereo unspecified), for which the melting point (as a rule, the temperature, or range, at which the solid turns liquid) is 90 to 92 °C.
Regarding `O=c1c2cnc3ccccc3c2on1-c1ccccc1`, the melting point turned out to be 163 °C.
Under `COc1cc(CC(=O)NCCCc2ccc(C)c(C)c2)ccc1OCCNCCO` stands 76 to 79 °C; under `CC(C(N)=O)c1ccc(N)cc1` (stereo unspecified), 120 to 122 °C.
With `Cc1cccc(OCC(=O)NCCO[N+](=O)[O-])c1`, the melting point lay within 40 to 42 °C.
On to `FC(F)(F)c1ccc2nc(-c3csc(Nc4ncccc4Cl)n3)[nH]c2c1`, for which the melting point lay in the range of 207 to 208 °C.
For `COC(=O)c1ccccc1-c1cc(-c2ccc(OC)cc2)n(C(C)=O)n1` the value was 119 to 121 °C; for `O=C1c2cccc(NCCc3ccc(O)cc3)c2C(=O)c2c(NCCc3ccc(O)cc3)cccc21`, 181 to 182 °C.
For `O=C(CS(=O)Cc1ccco1)C12CC3CC(CC(C3)C1)C2` (stereo unspecified) the value was 75 to 79 °C.
`CCCc1nc2c(N)nc3cc(OCCCO)ccc3c2s1` had a melting point of 157 to 160 °C.
`COc1cc(CCN2CCc3cc(O)ccc3C2)cc(OC)c1OC`: the melting point was 180 to 186 °C.
For `O=C(O)[C@@H]1CSC2(CCSCC2)N1` the value was 196 °C.
As to `COc1cc(C(=O)NC=NC(=O)ON(c2ccc(C)c(NC(=O)c3ccc(C=Cc4ccccc4)cc3)c2)C(C)(C)C)cc(OC)c1OC`, the melting point amounted to 166 °C.
For `COc1cc(OC)nc(C(OC)(C(=O)NS(C)(=O)=O)c2ccccc2)n1` (stereo unspecified) the value was 155 to 157 °C; for `CC(=O)N1CCC(C(=O)OC2c3ccccc3C(=O)N2c2ccc3ccc(Cl)nc3n2)CC1` (stereo unspecified), 101 °C; for `CC1(C)CC(=O)C2=C(C1)NC1=C(C(=O)CC(C)(C)C1)C2c1cccc(Oc2ccncc2)c1`, 186 to 188 °C.
For `Cc1cnn(CN(C(=O)CCl)c2c(C)cccc2C)c1` the value was 100 °C; for `O=C(c1ccccc1)c1ccc(C(=O)N2Cc3ccccc3CCc3ccccc32)cc1`, 89 to 92 °C.
`Nc1c(NCCCOc2cccc(C=O)c2)c(=O)c1=O` returned a melting point of 203 to 206 °C.
Under `COc1ccccc1N1CCN(CCn2c(=O)[nH]c3sc(C)c(C)c3c2=O)CC1` stands 196 to 197 °C; under `FCCOc1ccc(COCOc2ccc(Cl)cc2)cc1`, 60.7 to 61.6 °C; under `CC(C)(C)OC(=O)Nc1cc(OCC#N)c(C#Cc2ccccc2)cc1[N+](=O)[O-]`, 170 °C.
For `CCSc1nc2cccc(C(=O)OC)c2n1Cc1ccc(-c2ccccc2-c2nc(=O)o[nH]2)cc1` the value was 210 to 211 °C; for `COc1ccc(CCc2ccncc2)c2c1OCC2C` (stereo unspecified), 89 to 93 °C; for `CC(C)OC(=O)N1CCC(c2nc3cc(-c4ccc(C(=O)O)cn4)ccc3o2)CC1`, 239 to 242 °C.
In turn, `O=C(NC1(C(=O)O)CCOCC1)OCc1ccccc1` showed a melting point of 110 to 115 °C.
`O=C(NCCCN1CCOCC1)Nc1nc2ccc(OCc3c(Cl)cccc3Cl)cc2s1` showed a melting point of 162 to 166 °C.
`CC(C)n1c(=O)ccc2cnc(S(C)=O)nc21` (stereo unspecified) had a melting point of 132 to 133 °C.
For `O=S1N=C(NCCCN(Cc2ccsc2)c2ccccn2)C(NCc2ccncc2)=N1` (stereo unspecified) the value was 155 to 157 °C; for `CO[C@@H]1OC(C)(C)O[C@@]1(C)c1cccc(OCc2ccc3ccccc3c2)c1` (racemic), 100 to 103 °C.
The compound `CC[C@H]1[C@H](O)CC(=O)N1c1ccc(C#N)c(Cl)c1C` displayed a melting point of 142 to 146 °C.
`O=[N+]([O-])c1cc(C(F)(F)F)c(Cl)c([N+](=O)[O-])c1Nc1ncc(Cl)cc1Cl` showed a melting point of 64 to 65 °C.
Under `C[C@H](C(=O)OCc1ccccc1)n1ccn(-c2ccc(OCC(F)(F)C(F)F)cc2)c1=O` stands 75 to 76 °C; under `Cc1onc(-c2ccccc2)c1-c1csc(NC(=O)C(N)=O)n1`, 204 to 205 °C; under `Cc1cc2c(s1)Oc1ccccc1N=C2N1CCN(C)CC1`, 132 to 133 °C.
`O=c1oc2ccccc2c(O)c1Sc1ccccc1` registered a melting point of 186 to 189 °C.
Regarding `N#CCCNC(=O)C1=CC(CF)(CF)Oc2ccc(C#N)cc21`, the melting point fell in the range of 170 to 172 °C.
Compound `Cc1sc(-c2ccccc2)nc1CCOc1ccc([N+](=O)[O-])cn1` registered a melting point of 131 to 132 °C.
Under `CCC(C)(C)OC(=O)NC(C)(Cc1c[nH]c2ccccc12)C(=O)NCCc1cccs1` (stereo unspecified) stands 95 to 98 °C; under `CCCC(C)(c1ccc(Oc2ccc([N+](=O)[O-])cc2)cc1)c1ccc(Oc2ccc([N+](=O)[O-])cc2)cc1`, 151 to 152 °C.
For `Cc1onc(-c2ccccc2)c1C(=O)NC1C(=O)N2C1SCC(C)(Cl)C2C(=O)O` (stereo unspecified) the value was 210 °C.
Under `CC(C)(C)OC(=O)N1CCC(n2nc(-c3c(-c4ccccc4)nn4ccccc34)ccc2=O)CC1` stands 152 to 153 °C.
`CC(C)NC(=O)c1ccn2nc(-c3ccccc3)c(-c3ccc(=O)n(C(C)C)n3)c2c1` came in with a melting point of 230 to 232 °C.
On to `Oc1cc2cc(-c3c(F)cccc3F)sc2c(Cl)c1Cl`, for which the melting point was 161 to 162 °C.
Under `COC(=O)c1cc(-c2ccccc2)cc2c1C(C)(C)CCC2(C)C` stands 118 °C; under `COC(=O)CS(=O)C(C)c1ccc(-c2ccccc2)c(F)c1` (stereo unspecified), 161 to 163 °C.
For `Cc1scnc1-c1cc(C(C)(C)C)c(O)c(C(C)(C)C)c1` the value was 128 to 130 °C.
`CC1(C(O)C(Cc2ccc(Cl)cc2)n2cncn2)COCOC1` (stereo unspecified) registered a melting point of 152 to 154 °C.
As for `CCOC(=O)c1nn(-c2ccccc2)c2c1Cc1ccccc1-2`, the melting point was 110 to 112 °C.
Under `Cc1cc(Br)cn2cc(-c3ccc(C#N)cc3)nc12` stands 209 to 210 °C.
Under `COCc1c(C(=O)OC(C)(C)C)ncc2[nH]c3ccc(Oc4ccc(Br)cn4)cc3c12` stands 173 to 175 °C; under `CC(C)c1cc2c(-c3nc4cnccc4[nH]3)ccc(OC(F)F)c2o1`, 201 °C; under `CNC(=O)OC(Cn1ccnc1)c1ccc(Cl)cc1Cl` (stereo unspecified), 106 to 108 °C.
For `O=C(O)CP(=O)(O)C[C@H](Cc1ccccc1)NC(=O)c1ccccc1` the value was 105 to 107 °C; for `CNC(=O)c1ccc(-c2ccc3oc(C4CCN(C(=O)OC(C)C)CC4)nc3c2)cc1C`, 151 to 154 °C.
`COc1ccnc(CCc2nc3cc(-c4ccc(S(=O)(=O)Nc5ccccc5)cc4)cnc3[nH]2)c1` showed a melting point of 231 to 233 °C.
Under `CCCSC1NC(c2ccc(Cl)cc2)=NN(CC(F)(F)F)C1=O` (stereo unspecified) stands 99 to 100 °C; under `O=C(Nc1nc2ccc(C(F)(F)F)cc2s1)c1c(F)cccc1F`, 256 to 257 °C; under `Cc1cc(C)c2nc(C)c(NC(=O)Nc3ccc(F)cc3F)c(-c3ccccc3Cl)c2c1`, 234 to 235 °C.
For the compound `O=C1c2ccccc2-c2ccncc21`, the melting point was in the range of 152 to 153 °C.
Under `CCCCCCCCCCCCCCCCCCOc1cc(N(CC(=O)O)CC(=O)O)cc([N+](=O)[O-])c1` stands 131 to 134 °C.
Under `CCNC(=O)c1ccc(F)c(NC(=O)c2cc(C(C)(C)C)nn2CC)c1` stands 188 °C.
Under `CCCC1=C(C(=O)OCC)C(c2ccnc3ccccc23)c2c[nH]nc2N1` (stereo unspecified) stands 198 °C; under `CNCC(O)C(Oc1ccc2c(c1)OCO2)c1ccccc1` (stereo unspecified), 100 to 122 °C.
The compound `O=C(CC1=C(n2nc(-c3c(-c4ccccc4)nn4ccccc34)ccc2=O)CCCC1)N1CCSCC1` displayed a melting point of 180 to 182 °C.
The compound `CCC(C)Cc1c(-c2ccc([N+](=O)[O-])cc2Cl)c(C)nc2ncnn12` (stereo unspecified) showed a melting point of 158 to 162 °C.
On to `CCCc1c(O)ccc2c(=O)cc(C(=O)OCC)oc12`, for which the melting point was 155 to 162 °C.
For `CCCOc1cc(C(=O)O)cc([N+](=O)[O-])c1C(=O)c1ccccc1` the value was 160 to 162 °C; for `CCCCCCc1cnc(-c2ccc(F)cc2)nc1`, 39 °C.
`COc1ccc(SCc2ccc(F)cc2F)c(Cl)c1Cl` displayed a melting point of 86 to 88 °C.
For `c1ccc(Nc2ccncc2Oc2ccccc2)cc1` the value was 111 to 113 °C; for `CCOCc1cc2cc(Br)ccc2oc1=Nc1ccc(Cl)cc1`, 144 to 145 °C; for `O=c1c(Cc2ccncc2)c(-c2ccc(Br)cc2)[nH]c2ccccc12`, 232 to 234 °C.
For `CCn1c(=O)c(-c2cc(OC)cc(OC)c2)cc2cnc(SC)nc21` the value was 120 to 122 °C; for `CCc1nc2c(NC(=O)c3ccccc3)nc3ccccc3c2n1CCCCNS(C)(=O)=O`, 249 to 250 °C.
`Cn1nnc(Cc2ccc3c(c2)c(C2=CCN(CCN4CCNC4=O)CC2)cn3-c2ccc(F)cc2)n1` gave a melting point of 129 to 131 °C.
Under `ClC(Cl)=CCOc1cc(Cl)c(OCc2ccc3ccccc3c2)c(Cl)c1` stands 86.7 °C.
On to `O=C1CCCc2ccc(OCCCCN3CCN(c4cccc5c4OCCC5)CC3)nc2N1`, for which the melting point lay in the range of 186 to 187 °C.
In turn, `Cc1c(S(=O)(=O)Nc2ccc(CO)cc2S(C)(=O)=O)sc2ccc(F)cc12` gave a melting point of 120 to 121 °C.
`COc1cc(F)c(C(O)C#N)cc1OC` (stereo unspecified) had a melting point of 112 to 114 °C.
`Cn1ncc(C(=O)O)c1OCc1ccccc1` displayed a melting point of 117 to 122 °C.
Compound `O=[N+]([O-])c1cnn2c(-c3cccc(C(F)(F)F)c3)ccnc12` displayed a melting point of 159 to 161 °C.
For the compound `O=C(O)c1cn(C2CC2F)c2c(F)c(F)c(F)cc2c1=O` (stereo unspecified), the melting point fell in the range of 232 to 235 °C.
Under `CN1C=C(c2ccccc2)c2cccc(NC(=O)C=NO)c2C1` stands 151 °C.
For `CCc1c(-c2ccc(O)cc2)c2cc(COC)c3cccc1n32` the value was 137 to 141 °C.
The compound `O=C(Nc1ccc(Oc2ccnc(N3CCC4(CC3)OCCO4)n2)c2ccccc12)c1cc(F)cc(N2CCOCC2)c1` displayed a melting point of 115 to 117 °C.
